Read-outs that look alike come from different tables or passages of the source.
Assays:
[1] = system: SOX2 (ectoderm and pluripotency marker) in RUES2-GLR cells; assay: DevTox GLR-Endo assay: increase in percent SOX2-positive cells (AEID 3095, Sox2_up);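 note: cells exposed to test chemicals for 48 h in total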
RUES2-GLR cells = assay: DevTox GLR-Endo assay: decrease in total cell count, cytotoxicity (AEID 3098, CellCount_dn); conditions: for Emax: Homo sapiens, read-out: Cell Count % Max Inhibition
Protocol: (§1) The total test chemical incubation period was 48 h.
(§2) Assay plate controls included non-differentiated pluripotent cells maintained in complete Essential 8 Flex medium (baseline control), endoderm differentiated cells (differentiation control), endoderm differentiated cells treated with DMSO (0.2%) (solvent control), and TGF-ß receptor inhibitor SB431542 (1 µM)-treated cells (developmental toxicant-positive control) (Figure S3). All experiments were completed with a minimum of four biological replicates (n = 4).
(§3) (Supplementary Materials).

[2] = system: SOX17 (endoderm marker) in RUES2-GLR cells; assay: DevTox GLR-Endo assay: increase in percent SOX17-positive cells (AEID 3093, Sox17_up); assay type: cell-based, human; conditions: for Emax: Homo sapiens
Protocol: as §1, §3

[3] = system: BRA (mesoderm marker) in RUES2-GLR cells; assay: DevTox GLR-Endo assay: increase in percent BRA-positive cells (AEID 3096, Bra_up); assay type: cell-based, human
Protocol: as §1, §3

[4] = system: SOX17 (endoderm marker) in RUES2-GLR cells; assay: DevTox GLR-Endo assay: decrease in percent SOX17-positive cells (AEID 3094, Sox17_dn); conditions: for AC50: read-out: ga (winning model), tcpl plot AEID3094, gain parameter of winning curve fit (log concentration, µM axis), hit calls only (converted); for DevTox-GLR Endo ACC: activity concentration at cutoff, SOX17-positive cells
Protocol: as §1, §2, §3

[5] = cited from earlier work; for Classification: developmental toxicant classification (Teratogen / Non-Teratogen) of reference and training chemicals, ref DOI per chemical: 10.1093/toxsci/kft239, 10.1093/toxsci/kfaa014, 10.1177/026119290203000204, 10.1038/s41598-020-59542-x; for DT Class.: developmental toxicant classification, chemicals common with quickPredict; for Development Toxicant Classification: Table S2
[6] = tcpl plot AEID3095, maximum mean response
[7] = tcpl plot AEID3095, maximum median response
[8] = tcpl plot AEID3093, maximum mean response, read-out: MAX_MEAN
[9] = tcpl plot AEID3093, maximum median response, read-out: MAX_MED
[10] = tcpl plot AEID3096, maximum mean response
[11] = tcpl plot AEID3096, maximum median response
[12] = DevTox GLR-Endo prediction against developmental toxicant classification
[13] = Homo sapiens, read-out: DevTox % Max Inhibition
[14] = Homo sapiens, read-out: MAX_MEAN
[15] = Homo sapiens, read-out: MAX_MED
[16] = Table S2, SOX17-positive cells, cutoff 3*bmad
[17] = Table S2, percent SOX17-positive cells, 48 h exposure
[18] = Homo sapiens, read-out: tp (winning model)

SMILES | MAX_MEAN [1, 6] [Percent Activity] | MAX_MED [1, 7] [Percent Activity] | Emax (RUES2-GLR cells) [%] | Cell Count ACC (RUES2-GLR cells; human, 48 h) [µM] | Emax [2, 8] [%] | Emax [2, 9] [%] | HIT−CALL ([2]; tcpl plot AEID3093, COFF 20.3) | HIT−CALL ([3]; tcpl plot AEID3096, COFF 0.774) | MAX_MEAN [3, 10] [Percent Activity] | MAX_MED [3, 11] [Percent Activity] | Emax [4, 13] [%] | Emax [4, 14] [%] | Emax [4, 15] [%] | Hit Call [4, 16] | DevTox ACC [4, 17] [µM] | HIT−CALL ([4]; tcpl plot AEID3094, COFF 20.3) | Classification [5] | DT Class. [5] | Development Toxicant Classification [5] | AC50 ([4]; Homo sapiens) [µM] | further results
CCCc1cc(=O)[nH]c(=S)[nH]1 | 0.595 | 0.601 | 12.9 | >200 | 7.44 | 8.97 | 0 | 1 | 0.944 | 0.969 | 16.6 | 14.7 | 16.6 | Negative | >200 | 0 | Teratogen | Pos | – | – | hit call designation (in words) [4, 12]: false negative; Emax ([4]; Homo sapiens, read-out: maximum observed effect level class (% max inhibition)): 0 to 20%
OB(O)O [Boric acid] | 0.45 | 0.453 | – | – | – | – | 0 | 0 | 0.818 | 0.83 | – | – | – | Negative | >200 | 0 | Teratogen | Pos | – | – | Cell Count % Max Inhibition (RUES2-GLR cells; Table S2, cell count relative to DMSO): 12.3286%; MAX_MEAN ([2]; tcpl plot AEID3093, maximum mean response): 7.53 Percent Activity; MAX_MED ([2]; tcpl plot AEID3093, maximum median response): 7.06 Percent Activity; hit call designation (in words) [4, 12]: false negative; DevTox % Max Inhibition ([4]; Table S2, percent SOX17-positive cells relative to DMSO): 16.7249%; maximum observed effect level class (% max inhibition) ([4]; stratification of training set chemicals): weak (weak (0–20% max inhibition)); MAX_MEAN ([4]; tcpl plot AEID3094, maximum mean response): 15.7 Percent Activity; MAX_MED ([4]; tcpl plot AEID3094, maximum median response): 16.7 Percent Activity
NNC(=O)c1ccncc1 [Isoniazid] | 0.685 | 0.538 | 7.42 | >200 | 14 | 13.9 | 0 | 0 | 0.794 | 0.781 | 3.99 | 3.77 | 3.99 | Negative | >200 | 0 | Non-Teratogen | Neg | Negative | – | –
Nc1cccc2c1CN(C1CCC(=O)NC1=O)C2=O (centres unmarked) [Lenalidomide] | 0.674 | 0.697 | 44.2 | – | 10.3 | 9.38 | 0 | 0 | 0.843 | 0.842 | 78.9 | 78.8 | 78.9 | Positive | 0.05026 | 1 | Teratogen | – | Positive | 0.337 | Cell Count ACC (RUES2-GLR cells; Table S2, 48 h exposure): 0.1174 µM; effect on cell counts (in words) (RUES2-GLR cells; reference chemical testing, increasing concentrations): cell counts remained constant; effect on SOX17-positive cells (in words) ([4]; 48 h exposure during directed endoderm differentiation): significant reductions in the SOX17-positive sub-population; IC50 ([4]; Homo sapiens, 48 h): 0.13 µM; Emax [4, 18]: 79.2%; % Max Inhibition ([4]; maximum inhibition of SOX17-positive cells, reference chemical testing, 48 h exposure): 44%; Developmental Toxicant Classification ([5]; reference chemicals): Positive
O=C1NC(=O)C(c2ccccc2)(c2ccccc2)N1 | 0.502 | 0.532 | 22.6 | 191.824 | 11.2 | 11.7 | 0 | 0 | 0.943 | 0.909 | 21 | 19.1 | 21 | Positive | 201.562 | 1 | Teratogen | Pos | Positive | 191 | DevTox-GLR Endo CC (RUES2-GLR cells; human, 48 h): 191.82 µM; Emax [4, 18]: 32.6%; DevTox-GLR Endo ACC ([4]; 48 h exposure): 201.56 µM
O=C(O)c1cc(/N=N/c2ccc(S(=O)(=O)Nc3ccccn3)cc2)ccc1O [Sulfasalazine] | 1.38 | 0.57 | 8.86 | >200 | 8.6 | 8.79 | 0 | 0 | 0.92 | 0.948 | 11.8 | 9.93 | 11.8 | Negative | >200 | 0 | – | – | – | – | –
OCCO [Ethylene Glycol] | – | – | – | – | – | – | – | – | – | – | – | – | – | – | – | – | – | – | – | – | HIT−CALL [1]: 0; MAX_MEAN [1]: 1.02; MAX_MED [1]: 0.539; Cell Count % Max Inhibition (RUES2-GLR cells): 7.044%; Cell Count ACC (RUES2-GLR cells): >200 µM; HIT−CALL [2]: 0; MAX_MEAN [2]: 15.9; MAX_MED [2]: 16.8; HIT−CALL [3]: 0; MAX_MEAN [3]: 0.895; MAX_MED [3]: 0.908; DevTox % Max Inhibition [4]: 6.931%; DevTox ACC [4]: >200 µM; HIT−CALL [4]: 0; Hit Call [4]: Negative; MAX_MEAN [4]: 6.33; MAX_MED [4]: 6.93; hit call designation (in words) [4]: false negative; maximum observed effect level class (% max inhibition) [4]: weak (key: high (80–100% max inhibition); moderate (20–80% max inhibition); weak (0–20% max inhibition))
CC(=O)CC(c1ccccc1)c1c(O)c2ccccc2oc1=O (centres unmarked) [Warfarin] | 0.566 | 0.495 | 19.1 | – | 11.3 | 11.6 | 0 | 1 | 0.949 | 0.975 | 26.9 | 26.8 | 26.9 | Positive | 93.3273 | 1 | – | – | – | 81.3 | Cell Count ACC (RUES2-GLR cells; Table S2, 48 h exposure): 197.749 µM; DevTox-GLR Endo CC (RUES2-GLR cells; concentration at cell count cutoff, 48 h exposure): 197.75 µM; Emax [4, 18]: 26.8%; DevTox-GLR Endo ACC ([4]; 48 h exposure): 93.33 µM

Source: PMC9321663, “The DevTox Germ Layer Reporter Platform: An Assay Adaptation of the Human Pluripotent Stem Cell Test” (Toxics, 2022)
